{
  "source": "patent US20060142204A1",
  "about": "“Pyrrolidine derivatives for use in treating heaptitis c virus infection” (GENOSCIENCE, priority 2002, published 2006)",
  "key": {"[1]": {"biological_target": "full-length NS3/NS4A complex (Hepatitis C virus genotype 1a, UniProt P27958)", "sequence (P27958 1027-1657)": "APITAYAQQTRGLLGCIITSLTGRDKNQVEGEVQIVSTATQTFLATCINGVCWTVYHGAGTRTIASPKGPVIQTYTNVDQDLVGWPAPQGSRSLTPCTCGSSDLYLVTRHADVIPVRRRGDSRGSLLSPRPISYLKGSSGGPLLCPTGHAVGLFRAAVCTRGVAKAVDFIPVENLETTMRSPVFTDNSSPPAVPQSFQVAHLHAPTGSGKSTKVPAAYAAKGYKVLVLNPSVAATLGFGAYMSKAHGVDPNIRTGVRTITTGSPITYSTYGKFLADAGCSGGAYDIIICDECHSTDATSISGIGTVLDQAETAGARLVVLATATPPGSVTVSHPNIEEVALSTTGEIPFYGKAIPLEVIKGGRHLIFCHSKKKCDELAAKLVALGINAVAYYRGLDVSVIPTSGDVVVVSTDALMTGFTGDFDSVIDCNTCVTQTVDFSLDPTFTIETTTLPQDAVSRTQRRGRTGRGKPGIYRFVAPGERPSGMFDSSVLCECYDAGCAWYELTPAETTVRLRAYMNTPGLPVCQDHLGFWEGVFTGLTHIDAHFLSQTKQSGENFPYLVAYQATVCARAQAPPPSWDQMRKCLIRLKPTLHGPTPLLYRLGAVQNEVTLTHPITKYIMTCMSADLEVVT", "sequence (P27958 1658-1711)": "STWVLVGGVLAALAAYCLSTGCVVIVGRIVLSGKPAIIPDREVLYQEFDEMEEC", "test": "biochemical", "text": "Operating Method for HCV NS3-4A Activity Assay:\nInhibition data were obtained on the full-length NS3/NS4A complex. […] A summary of the NS3 protease activity assay is described bellow.\nWe used the full-length NS4A-NS3 protease and a recombinant EGPF-NS5A/B-CBD fusion protein serving as a fluorescent substrate for the determination of the compounds activity.\nThe fluorogenic substrate was built in three parts: a Green fluorescent protein (EGFP), a peptide corresponding to the NS5A-NS5B junctions ([…]) and a Cellulose Binding Domain (CBD). The NS5A/B is the more efficiently cleavage site for NS3 than at other cleavage site of HCV polyprotein (references 15). After cleavage reaction of EGFP-NS5A/B-CBD by NS3, the un-cleaved substrate and the C-terminal domain of cleaved substrate are fixed on cellulose. After centrifugation, the released free EGFP-NS5A was quantified by fluorometry.\nThe inhibitors were tested in triplicate in each experiment. The inhibitor was pre-incubated with the NS3 enzyme (50 nM final concentration) for 5 minutes at 37° C. The substrate was added (100 nM final concentration) and incubated at 37° C. for 40 minutes. Then, the reaction mixture was transferred into an Eppendorf containing 5 mg of pre-equilibrated cellulose with reaction buffer 1× and agitated at room temperature for 10 minutes followed by centrifugation for 5 min at 13000 rpm. The supernatant (100 μL) containing liberated green fluorescent protein was transferred to a black 96 well plate and data was collected by a fluorometer (excitation λ=485 nm, and emission λ=538 nm). For each black 96 well plate the control of the activity and inhibition of NS3 protease, fluorescence background noise and the measure of the total fluorescence were performed. The fluorogenic substrate EGFP-NS5A/B-CBD at 100 nM final concentration was incubated with NS3 protease at 50 nM final concentration for the control of the NS3 activity. The inhibitors Ac-Asp-D-Gla-Leu-Ile-β-cyclohexyl-Ala-Cys-OH (CHAC), (references 16) PMSF and TPCK were used at various concentrations to validate the inhibition of NS3 protease reaction. The fluorescence background noise was obtained with the fluorogenic substrate EGFP-NS5A/B-CBD at 100 nM, and the control of the maximum fluorescence was obtained with the fluorogenic substrate EGFP-NS5A/B-CBD at 100 nM without the step of the fixation on pre-equilibrated cellulose."}, "four different strains": {"system": "four different strains", "test": "ames test", "conditions": "with or without metabolic activation", "text": "The compounds of the present invention present the advantage to be non bactericidal and/or non mutagenic. The ames test with four different strains, with or without metabolic activation, has been carried out with the above cited compounds (in particular, compound 5). The results thereof have shown that the compounds above identified (in particular, compound 5) are non mutagenic."}, "HCV": {"system": "HCV", "test": "HCV replication in primary cultures of human hepatocytes infected in vitro", "assay_type": "cell-based, HCV genotype 3 (serum S183) in human hepatocytes", "conditions": "1 μM of compound; hepatocyte cultures FT200, FT201, FT203; 5 days; FIG. 5", "protocol": "More particularly, the in vitro primary cultures of human hepatocytes were prepared as follows: hepatocytes were prepared from liver tissue resected from donors who tested negative for HCV, and inoculation was performed 3 days after plating with 33 HCV serum samples of different virus load and genotype. The presence of intracellular HCV RNA, detected by a strand-specific rTth RT-PCR assay, was used as evidence of infection. […] At day 5, the copy level of viral RNA was estimated to be amplified at least 15-fold in infected cells. […] This model represents therefore a valuable tool for the study of initial steps of the HCV replication cycle and for the evaluation of antiviral molecules.\nThe basic protocol was as follows: 1) human hepatocytes extracted from liver lobectomies of HCV-negative patients were cultured in the long-term culture system mentioned above; 2) cells were then infected in vitro with an aliquot of serum from HCV-positive patients; 3) after a few days of culture (1 to 14 days), cellular RNA was extracted and analyzed for HCV RNA (+) and (−) strands using a highly specific rtTh. […]\nRNA was extracted and analyzed using: first, rtTh RT-PCR and agarose gel electrophoresis (control of the presence of the replicative strand); and second, quantitative RT-PCR using (a) the genomic strand of HCV, and (b) GAPDH RNA/GAPDH RNA as an internal control. […]"}, "[2]": {"conditions": "enzyme 50 nM, substrate 100 nM, 37° C., 40 minutes, read-out: NS3 IC50"}},
  "note": "Like-named read-outs stand apart in the source and are kept apart here. Non-standard residues stand in square brackets, D forms with d. Residues, ends and D or L forms follow the SMILES beside them. *: point of attachment. dGla = N[C@H](CC(C(=O)O)C(=O)O)C(=O)O; Hyp = O=C(O)[C@@H]1C[C@@H](O)CN1; Cha = N[C@@H](CC1CCCCC1)C(=O)O; Abu = CC[C@H](N)C(=O)O; tBu = CC(C)(C)*",
  "data": [
    {"molecule": "Cc1ccc(S(=O)(=O)NC(Cc2ccccc2)C(=O)CCl)cc1", "note": "[TPCK, L-1-4′-Tosylamino-2-phenylethyl chloromethyl ketone, reference compound]", "values": [
      {"measurement": "IC50", "setting": "[1]", "result": 900, "unit": "µM"}
    ]},
    {"molecule": "CC[C@H](C)[C@H](NC(=O)[C@H](CC(C)C)NC(=O)[C@@H](CC(C(=O)O)C(=O)O)NC(=O)[C@H](CC(=O)O)NC(C)=O)C(=O)N[C@@H](CC1CCCCC1)C(=O)N[C@@H](CS)C(=O)O", "note": "[CHAC, Ac-Asp-D-Gla-Leu-Ile-β-cyclohexyl-Ala-Cys-OH, reference compound] (Ac-D[dGla]LI[Cha]C-OH)", "values": [
      {"measurement": "IC50", "setting": "[1]", "result": 0.04, "unit": "µM"}
    ]},
    {"molecule": "CC(C)(C)OC(=O)N[C@@H](CCC(=O)O)C(=O)N1C[C@H](OC(C)(C)C)C[C@H]1C(=O)NC(CC(F)(F)F)C(=O)O", "note": "(stereo partly drawn) [Compound 5]", "values": [
      {"measurement": "IC50", "setting": "[1]; [2]", "result": 150, "unit": "µM"},
      {"measurement": "mutagenicity (ames test)", "setting": "four different strains", "result": "non mutagenic"},
      {"measurement": "Inhibitory effect expressed as the ratio HCV RNA/GAPDH RNA", "setting": "HCV", "result": "significant inhibitory effect"}
    ]},
    {"molecule": "CC[C@H](NC(=O)[C@@H]1C[C@@H](OC(C)(C)C)CN1C(=O)[C@@H](NC(C)=O)C(C)C)C(=O)O", "note": "[Compound 18] (Ac-Val-[Hyp](tBu)-[Abu]-OH)", "values": [
      {"measurement": "IC50", "setting": "[1]; [2]", "result": 30, "unit": "µM"}
    ]}
  ]
}
